Test results: US7786141B2 (Vertex Pharmaceuticals Incorporated, priority 2004, dated 2010)

Experiments:
[1] = molecular target: T1, M1 muscarinic receptor (Homo sapiens, UniProt P11229); test: Functional mobilization of intracellular calcium (FLIPR) in M1-CHO cells; type: cell-based; settings: Table 4; for Emax: 100% efficacy is the maximum response obtained with the Carbachol control; for M1 Activity: modulating M1 receptor
T1 construct: expressed in transfected cells; host or cells: CHO (M1-CHO)
T1 sequence (P11229 1-460): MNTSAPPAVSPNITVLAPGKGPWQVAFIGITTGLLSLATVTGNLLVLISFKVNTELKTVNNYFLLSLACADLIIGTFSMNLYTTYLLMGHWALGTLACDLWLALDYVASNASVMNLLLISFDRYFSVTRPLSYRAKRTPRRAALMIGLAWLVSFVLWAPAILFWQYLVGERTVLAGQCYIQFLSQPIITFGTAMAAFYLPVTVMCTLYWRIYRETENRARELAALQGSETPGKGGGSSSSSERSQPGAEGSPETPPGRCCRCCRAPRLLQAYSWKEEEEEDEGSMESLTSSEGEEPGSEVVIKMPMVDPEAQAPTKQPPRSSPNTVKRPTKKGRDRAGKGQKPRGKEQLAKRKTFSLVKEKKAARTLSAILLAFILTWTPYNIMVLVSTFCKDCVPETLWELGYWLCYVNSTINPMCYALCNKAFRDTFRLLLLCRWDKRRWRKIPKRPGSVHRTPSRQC
Summary of the method: (§1)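 FLIPR Ca2+ read, ex 488/em 540 nm, 60 s. Recombinant CHO lines (M1 or M4), dye-loaded Fluo-3 AM 60-90 min at 37° C, probenecid 1 mM, pH 7.4. Agonist: compound alone; inhibition: 15 min compound pre-incubation, then carbachol at EC80 for that subtype.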

[2] = molecular target: T2, M4 muscarinic receptor (Homo sapiens, UniProt P08173); test: Functional mobilization of intracellular calcium (FLIPR) in M4-CHO cells; type: cell-based; settings: Table 4; for Emax: 100% efficacy is the maximum response obtained with the Carbachol control; for M4 Activity: modulating M4 receptor
T2 construct: expressed in transfected cells; host or cells: CHO (M4-CHO)
T2 sequence (P08173 1-479): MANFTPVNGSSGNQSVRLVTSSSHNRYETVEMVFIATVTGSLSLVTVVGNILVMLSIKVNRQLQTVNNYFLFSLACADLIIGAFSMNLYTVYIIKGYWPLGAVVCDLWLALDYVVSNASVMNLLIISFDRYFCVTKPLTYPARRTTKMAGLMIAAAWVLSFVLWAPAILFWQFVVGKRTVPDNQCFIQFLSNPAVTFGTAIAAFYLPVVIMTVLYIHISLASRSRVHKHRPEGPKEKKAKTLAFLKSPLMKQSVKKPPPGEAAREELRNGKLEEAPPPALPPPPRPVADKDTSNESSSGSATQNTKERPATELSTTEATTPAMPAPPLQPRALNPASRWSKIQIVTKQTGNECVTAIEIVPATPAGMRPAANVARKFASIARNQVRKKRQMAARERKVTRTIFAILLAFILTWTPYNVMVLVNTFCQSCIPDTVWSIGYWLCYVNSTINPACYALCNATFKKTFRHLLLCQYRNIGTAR
Summary of the method: as §1

Row | SMILES | Emax [1] [%] | M1 Activity [1] | Emax [2] [%] | M4 Activity [2]
1 | CCOC(=O)N1CCC(N2CCC3(CC2)CN(C(C)=O)c2c(-c4cccc(F)c4)cccc23)CC1 [compound 499] | 25 to 100 | x (activity was measured to be greater than 5.0 μM) | < 25 | x (activity was measured to be greater than 5.0 μM)
2 | COc1ccc(CC(=O)N2CCC(N3CCC4(CC3)CN(C(=O)N(C)C)c3ccc(F)cc34)CC2)cc1 [compound 500] | < 25 | x (activity was measured to be greater than 5.0 μM) | < 25 | x (activity was measured to be greater than 5.0 μM)
3 | CCOC(=O)N1CC[C@@H](CN2CCC3(CC2)CN(C(C)=O)c2cccc(C)c23)C1 [compound 502] | 25 to 100 | xxx (activity was measured to be less than 2.0 μM) | 25 to 100 | xx (activity was measured to be between 2.0 μM and 5.0 μM)
4 | CCOC(=O)N1C2CCC1CC(N1CCC3(CC[C@H](NC(=O)N(C)C)c4ccccc43)CC1)C2 (stereo partly drawn) [compound 503] | 25 to 100 | xxx (activity was measured to be less than 2.0 μM) | 25 to 100 | xxx (activity was measured to be less than 2.0 μM)
5 | CC(=O)N[C@H]1CCC2(CCN(C3CC(C)(C)CC(C)(C)C3)CC2)c2ccccc21 [compound 504] | < 25 | x (activity was measured to be greater than 5.0 μM) | < 25 | x (activity was measured to be greater than 5.0 μM)
6 | CC(=O)N1CC2(CCN(C3CCN(c4cnccn4)CC3)CC2)c2ccccc21 [compound 505] | 25 to 100 | xxx (activity was measured to be less than 2.0 μM) | 25 to 100 | xxx (activity was measured to be less than 2.0 μM)
7 | CC(=O)N[C@@H]1CCC2(CCN([C@@H]3C[C@H]4CC[C@@H]3C4)CC2)c2ccccc21 [compound 506] | < 25 | x (activity was measured to be greater than 5.0 μM) | 25 to 100 | xx (activity was measured to be between 2.0 μM and 5.0 μM)
8 | CCCOC(=O)N1C2CCC1CC(N1CCC3(CC1)CN(C(C)=O)c1ccccc13)C2 (stereo not drawn) [compound 507] | 25 to 100 | xxx (activity was measured to be less than 2.0 μM) | 25 to 100 | xxx (activity was measured to be less than 2.0 μM)
9 | C/C=C/C(=O)N1CC2(CCN(C3CCN(C(=O)OCC)CC3)CC2)c2cc(F)ccc21 [compound 508] | 25 to 100 | xxx (activity was measured to be less than 2.0 μM) | 25 to 100 | xxx (activity was measured to be less than 2.0 μM)
10 | CCOC(=O)N1CCC(N2CCC3(CC2)CN(C(C)=O)c2c(C)cccc23)CC1 [compound 509] | 25 to 100 | xx (activity was measured to be between 2.0 μM and 5.0 μM) | 25 to 100 | x (activity was measured to be greater than 5.0 μM)
11 | CCCOC(=O)N1CC[C@H](CN2CCC3(CC2)CN(C(=O)N(C)C)c2ccc(F)cc23)C1 [compound 510] | 25 to 100 | xxx (activity was measured to be less than 2.0 μM) | 25 to 100 | xxx (activity was measured to be less than 2.0 μM)
12 | COc1cc2c(cc1OC)C1(CCN(CC3CCCCC3)CC1)C[C@@H]2NC(C)=O [compound 511] | < 25 | x (activity was measured to be greater than 5.0 μM) | < 25 | x (activity was measured to be greater than 5.0 μM)
13 | COC1CCCCC1N1CCC2(CC1)CN(C(C)=O)c1ccc(F)cc12 (stereo not drawn) [compound 512] | < 25 | x (activity was measured to be greater than 5.0 μM) | < 25 | x (activity was measured to be greater than 5.0 μM)
14 | CCOC(=O)N1CCC(N2CCC3(CC2)CN(C2CCC4(CC2)OCCO4)c2ccccc23)CC1 [compound 513] | 25 to 100 | xxx (activity was measured to be less than 2.0 μM) | 25 to 100 | xxx (activity was measured to be less than 2.0 μM)
15 | CC(=O)N[C@H]1CCC2(CCN(CC3CC3)CC2)c2ccccc21 [compound 514] | 25 to 100 | xx (activity was measured to be between 2.0 μM and 5.0 μM) | 25 to 100 | x (activity was measured to be greater than 5.0 μM)
16 | CC#CC(C)OC(=O)N1C2CCC1CC(N1CCC3(CC1)CN(C(C)=O)c1ccccc13)C2 (stereo not drawn) [compound 515] | 25 to 100 | xxx (activity was measured to be less than 2.0 μM) | 25 to 100 | xxx (activity was measured to be less than 2.0 μM)
17 | C#CCOC(=O)N1C2CCC1CC(N1CCC3(CC1)CN(C(C)=O)c1ccccc13)C2 (stereo not drawn) [compound 516] | 25 to 100 | xxx (activity was measured to be less than 2.0 μM) | 25 to 100 | xxx (activity was measured to be less than 2.0 μM)
18 | CCOC(=O)N1CCC(N2CCC3(CC2)CN(c2ccncc2)c2ccc(F)cc23)CC1 [compound 517] | 25 to 100 | xxx (activity was measured to be less than 2.0 μM) | 25 to 100 | xxx (activity was measured to be less than 2.0 μM)
19 | CCCOC(=O)N1CC[C@H](CN2CCC3(CC2)CN(C(C)=O)c2ccccc23)C1 [compound 518] | < 25 | x (activity was measured to be greater than 5.0 μM) | < 25 | x (activity was measured to be greater than 5.0 μM)
20 | O=C(N[C@H]1CC2(CCN(C[C@@H]3C[C@H]4C=C[C@H]3C4)CC2)c2ccccc21)c1ccoc1 [compound 519] | 25 to 100 | xxx (activity was measured to be less than 2.0 μM) | < 25 | x (activity was measured to be greater than 5.0 μM)
21 | CN(C)C(=O)N1CC2(CCN(C3CCN(C(=O)[C@H]4CCCO4)CC3)CC2)c2cc(F)ccc21 [compound 520] | 25 to 100 | x (activity was measured to be greater than 5.0 μM) | < 25 | x (activity was measured to be greater than 5.0 μM)
22 | COc1cc2c(cc1OC)C1(CCN(C3CCCCC3)CC1)C[C@@H]2NC(C)=O [compound 521] | < 25 | x (activity was measured to be greater than 5.0 μM) | < 25 | x (activity was measured to be greater than 5.0 μM)
23 | CCOC(=O)N1CCC(N2CCC3(CC2)CN(C(=O)C(=O)CC)c2ccc(F)cc23)CC1 [compound 522] | > 100 | xxx (activity was measured to be less than 2.0 μM) | 25 to 100 | xxx (activity was measured to be less than 2.0 μM)
24 | O=C(N[C@H]1CC2(CCN(C3C[C@H]4CC[C@@H]3C4)CC2)c2ccccc21)N1CCCCC1 (stereo partly drawn) [compound 525] | < 25 | x (activity was measured to be greater than 5.0 μM) | 25 to 100 | xxx (activity was measured to be less than 2.0 μM)
25 | CC#CCOC(=O)N1CCC(N2CCC3(CC2)CN(C(C)=O)c2cccc(C)c23)CC1 [compound 526] | 25 to 100 | xxx (activity was measured to be less than 2.0 μM) | < 25 | x (activity was measured to be greater than 5.0 μM)
26 | CCCC#CCOC(=O)N1CC[C@@H](CN2CCC3(CC2)CN(C(=O)N(C)C)c2ccc(F)cc23)C1 [compound 527] | 25 to 100 | xxx (activity was measured to be less than 2.0 μM) | 25 to 100 | xxx (activity was measured to be less than 2.0 μM)
27 | CN(C)C(=O)N1CC2(CCN(C3CCN(c4cncnc4)CC3)CC2)c2cc(F)ccc21 [compound 528] | 25 to 100 | xx (activity was measured to be between 2.0 μM and 5.0 μM) | 25 to 100 | xxx (activity was measured to be less than 2.0 μM)
